Test system: zebrafish (Danio rerio) embryos
Assay: Heart rate of zebrafish embryos with doxorubicin-induced cardiotoxicity
Assay type: in vivo
Conditions: doxorubicin alone 3 μg/ml
Protocol: (§1) The embryos were treated with the polyphenol concentrate of the present invention (sample A009), at the dilutions 1:100 and 1:500, alone or in association with Doxorubicin (3 μg/mL). A pre-treatment was performed with A009, followed by administration of Doxorubicin and A009+Doxorubicin co-treatment. NT=not-treated cells. ^∘∘∘=p<0.0001 with respect to not-treated embryos; ***=p<0.001 with respect to embryos treated with doxorubicin alone;
as §1, with “alone.” for “alone;”
To evaluate the cardioprotective effect of the polyphenol concentrate of the invention, the zebrafish was used in vivo as the animal model to study. In particular the experiments were performed on zebrafish (Danio rerio) embryos incubated for 24, 48 and 72 hours after fertilization. […]

COc1cccc2c1C(=O)c1c(O)c3c(c(O)c1C2=O)C[C@@](O)(C(=O)CO)C[C@@H]3O[C@H]1C[C@H](N)[C@H](O)[C@H](C)O1 [doxorubicin]
heart rate of zebrafish embryos (48 hours, FIG. 2): significantly reduces their heart rate
heart rate of zebrafish embryos (72 hours, FIG. 3): significantly reduces their heart rate
